Assay results: patent publication US20260284275A1, “NANOGEL COMPRISING BIOACTIVE MOLECULES, THERAPEUTIC MOLECULES OR DRUGS TOGETHER WITH AN AMPHIPHILIC MOLECULE” (CM4CURE S.A., priority 2023, published 2026)

Legend:
[1] = test system: S. aureus (MRSA, ATCC 6538); assay: Real-time microcalorimetry of bacterial growth in liquid medium; assay type: cell-based; conditions: Fluometacyl 10 or 20 μg/mL with hydroxypropyl-β-cyclodextrin 42 μg/mL, 24 h
Method: S. aureus (MRSA, ATCC 6538) was grown overnight in TSB (tryptic soy broth) medium, before being diluted 1×10^7 fold in the fresh TSB. Subsequently […] aliquots of diluted bacteria suspensions were supplemented with Fluometacyl® (10 or 20 μg/mL) or mixture of Fluometacyl® (10 or 20 μg/mL) and hydroxypropyl-β-cyclodextrin (42 μg/mL). Subsequently 300 μL of suspensions were placed into the dedicated non-activated inserts of a 48-well plate and allowed for growing for 24 h under static conditions at 37 C using Calscreener.
Curve A—control bacterial growth for S. aureus MRSA 10^−6; Curve B—Bacteria with Fluometacyl® (10 μg/mL); Curve C—Bacteria with Fluometacyl® (10 μg/mL) and hydroxypropyl-β-cyclodextrin (42 μg/mL); Curve D—Bacteria with Fluometacyl® (20 μg/mL); Curve E—Bacteria with Fluometacyl® (20 μg/mL) and hydroxypropyl-β-cyclodextrin (42 μg/mL).

[2] = test system: S. aureus (ATCC BAA-1556, MRSA); assay: Real-time microcalorimetry (Calscreener) of bacterial growth in TSB; assay type: cell-based; conditions: for bacterial growth (heat flow): 24 h, 37° C.
Method: S. aureus (ATCC BAA-1556, MRSA) was grown overnight in TSB (tryptic soy broth) medium, before being diluted 1×10^4 fold in fresh TSB. Subsequently […] aliquots of diluted bacteria suspensions were supplemented with 10 μg/mL and 20 μg/mL of respectively triafluocyl (Polpharma) alone or in the mixture with TPGS (MedChemExpress LLC (Europe)) (1:1 w/w). Both Triafluocyl and TPGS were prepared in absolute ethanol as already mentioned in the above examples and were refrigerated as master stocks in absolute ethanol. Triafluocyl, TPGS or ethanol (0.6% final conc.) as a vehicle were added to the bacterial suspensions to obtain the concentrations (10 μg/mL and 20 μg/m) followed by a brief vortexing. Bacterial aliquots were then distributed in the dedicated non-activated inserts of a 48-well plate and grown for 24 h under static conditions at 37° C. using Calscreener technology to measure bacterial growth and metabolic activity in Real-Time as described in https://cordis.europa.eu/project/id/784514.
In FIG. 6, the real-time microcalorimetric measurements of bacterial metabolic activity is expressed as the heat flow and represents bacterial growth in TSB medium. Solid line stands for control bacteria with a vehicle (0.6% ethanol); thick dashed line—bacteria treated with 10 μg/mL of triafluocyl; thick dotted line—bacteria treated with 20 μg/mL of triafluocyl; thin dashed line—bacteria treated with both triafluocyl and TPGS (10 μg/mL:10 μg/mL); thin dotted line—bacteria treated with both triafluocyl and TPGS (20 μg/mL:20 μg/mL).

Compound: CC(O)COC[C@H]1O[C@@H]2O[C@H]3[C@H](O)[C@@H](O)[C@@H](O[C@H]4[C@H](O)[C@@H](O)[C@@H](O[C@H]5[C@H](O)[C@@H](O)[C@@H](O[C@H]6[C@H](O)[C@@H](O)[C@@H](O[C@H]7[C@H](O)[C@@H](O)[C@@H](O[C@H]8[C@H](O)[C@@H](O)[C@@H](O[C@H]1[C@H](O)[C@H]2O)O[C@@H]8COCC(C)O)O[C@@H]7COCC(C)O)O[C@@H]6COCC(C)O)O[C@@H]5COCC(C)O)O[C@@H]4COCC(C)O)O[C@@H]3COCC(C)O (stereo partly drawn) [hydroxypropyl-β-cyclodextrin]
- effect on the antibacterial activity of Fluometacyl in solution [1]: didn't impair

Compound: D-α-tocopheryl polyethylene glycol succinate [TPGS]
- effect of added TPGS on the inhibitory effect of triafluocyl on bacterial growth ([2]; TPGS at equivalent amount (1:1 w/w) to triafluocyl, 10 and 20 μg/mL): significantly reduced the inhibitory effect

Compound: CCCSc1nc(N[C@@H]2C[C@H]2c2ccc(F)c(F)c2)c2nnn([C@@H]3C[C@H](OCCO)[C@@H](O)[C@H]3O)c2n1 [Triafluocyl]
- bacterial growth (heat flow) ([2]; 10 μg/mL): significantly reduces
- bacterial growth (heat flow) ([2]; 20 μg/mL): fully inhibited
